Several values for one entry are separate records, joined by “and”; a condition that tells them apart may be missing. Identical values can stand only once.
Test system: 883617-216-R-J1-PDC tumor spheroids, viability
Assay: Anticancer human tumor 883617-216-R-J1-PDC patient-derived bladder carcinoma cell line growth inhibition [PI3K]
Details: spheroids with HUVEC and MSC; for viability, T/C: stronger effect = lower value; active = viability on the fitted dose curve at most 10% of control; inactive = the rest
Text: Combinatorial screen of targeted agents with the PI3K inhibitors inavolisib, alpelisib, duvelisib, and copanlisib in multi-cell type tumor spheroids
A high-throughput screen of multi-cell type tumor spheroids was designed to identify active combinations of targeted small molecules and PI3K pathway inhibitors. Complex spheroids include a stromal component modeled by human endothelial cells (HUVEC) and fibroblasts modeled by human mesenchymal stem cells (MSCs). The concentration ranges selected for each drug and investigational agent were based upon clinically achievable concentrations if the clinical Cmax of the agent was known.
Compounds. The drugs and investigational agents: inavolisib (NSC800729), alpelisib (NSC765974), duvelisib (NSC772469), copanlisib (NSC816437), ipatasertib (NSC767898), afuresertib (NSC778305), talazoparib (NSC767125), sapanisertib (NSC764658), selumetinib (NSC741078), tovorafenib (DAY101, NSC766906), vemurafenib (NSC761431), ravoxertinib (NSC781343), sotorasib (NSC818433), MRTX1133 (NSC 836407), abemaciclib (NSC 768073), palbociclib (NSC758247), venetoclax (NSC 766270), SY5609 (NSC837396), enzalutamide (NSC755605), and darolutamide (NSC825331), were obtained from the National Cancer Institute (NCI) Developmental Therapeutics Program Chemical Repository. The FDA-approved anticancer drug set is available from the NCI Developmental Therapeutics Program. […] The stock solutions were prepared in dimethyl sulfoxide (DMSO, Sigma-Aldrich, St. Louis, MO, cat. D2650) at 800-fold the tested concentration and stored at -70 degrees C prior to their use. All drugs and investigational agents were tested over a range starting from a high concentration at or near the clinical Cmax and decreasing in half-log increments. If the clinical Cmax for an agent had not been determined, the highest concentration tested was 10 microM.
Cell Culture. All cells were maintained in an incubator at 37 degrees C and 5% CO2 with 95% humidity. The PDC lines were cultured according to standard operating procedures established by the NCI PDMR (https://pdmr.cancer.gov/sops/default.htm). All PDCs were thawed and cultured in Matrigel-coated flasks prepared with a working solution of 1X Ham's F-12 nutrient mix, without supplementation (Invitrogen, Waltham, MA, cat. 11765054), 100 U/mL penicillin-streptomycin (Invitrogen, cat. 15140122), and 2.5% Matrigel (Corning Inc., Corning, NY, cat. 354248) for the first three passages. The 354836-022-R-J1-PDC, 475296-252-R-J1-PDC, and 997726-040-R-J2-PDC lines were cultured in 6A media, which includes advanced DMEM/F-12 (Thermo Fisher Scientific, cat. 12634028), 10 mM HEPES (Thermo Fisher Scientific, cat. 15630080), 1X GlutaMAX supplement (Thermo Fisher Scientific, cat. 35050061), 0.1 mg/mL primocin (InvivoGen, San Diego, CA, cat. ant-pm-2), 10% defined fetal bovine serum, heat inactivated (HyClone Laboratories Inc., Logan, UT, cat. SH30070.03HI), 50% L-WRN conditioned media (ATCC, cat. CRL-3276), 1.25 mM N-Acetyl-L-cysteine (Sigma-Aldrich, cat. A9165), 10 mM nicotinamide (Sigma-Aldrich, cat. N0636), 1X B-27 supplement (Thermo Fisher Scientific, cat. 17504044), 1X N-2 supplement (Thermo Fisher Scientific, cat. 17502048), and 10 microM Y-27632 dihydrochloride (Tocris Bioscience, Bristol, United Kingdom, cat. 1254). The 624824-186-R-J2-PDC line was cultured in 6C/Colon 1B media, which includes all 6A media components plus 50 ng/mL human EGF recombinant protein (Thermo Fisher Scientific, cat. PHG0311). […]
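Note: spheroids exposed to agents for 7 days before the viability read.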

CC1(C)CCC(CN2CCN(c3ccc(C(=O)NS(=O)(=O)c4ccc(NCC5CCOCC5)c([N+](=O)[O-])c4)c(Oc4cnc5[nH]ccc5c4)c3)CC2)=C(c2ccc(Cl)cc2)C1 + CC(Nc1ccc2c(c1)OCCn1cc(N3C(=O)OCC3C(F)F)nc1-2)C(N)=O
3.77 µM: IC50 (curve of first compound, second compound 0.0316 µM)
< 0.0316 µM: IC50 (curve of first compound, second compound 0.1 µM) | IC50 (curve of first compound, second compound 0.316 µM) | IC50 (curve of first compound, second compound 1 µM)
active: viability, T/C (second compound 0.00316 µM, first compound 10 µM) 4.2% | viability, T/C (second compound 0.01 µM, first compound 10 µM) 3.91% | viability, T/C (second compound 0.0316 µM, first compound 10 µM) 5.24% | viability, T/C (second compound 0.1 µM, first compound 10 µM) 2.96%
5.33 µM: IC50 (curve of first compound, second compound 0.00316 µM)
4.58 µM: IC50 (curve of first compound, second compound 0.01 µM)
inactive: viability, T/C (second compound 0.00316 µM, first compound 0.0316 µM) 83.5% | viability, T/C (second compound 0.00316 µM, first compound 0.1 µM) 61.8% | viability, T/C (second compound 0.00316 µM, first compound 0.316 µM) 97.3% | viability, T/C (second compound 0.00316 µM, first compound 1 µM) 107% | viability, T/C (second compound 0.00316 µM, first compound 3.16 µM) 90.2% | viability, T/C (second compound 0.01 µM, first compound 0.0316 µM) 86.6% | viability, T/C (second compound 0.01 µM, first compound 0.1 µM) 74.8% | viability, T/C (second compound 0.01 µM, first compound 0.316 µM) 87.8% | viability, T/C (second compound 0.01 µM, first compound 1 µM) 82.8% | viability, T/C (second compound 0.01 µM, first compound 3.16 µM) 71.8% | viability, T/C (second compound 0.0316 µM, first compound 0.0316 µM) 66.7% | viability, T/C (second compound 0.0316 µM, first compound 0.1 µM) 51.6% | viability, T/C (second compound 0.0316 µM, first compound 0.316 µM) 65.5% | viability, T/C (second compound 0.0316 µM, first compound 1 µM) 65.4% | viability, T/C (second compound 0.0316 µM, first compound 3.16 µM) 57.8% | viability, T/C (second compound 0.1 µM, first compound 0.0316 µM) 29.4% | viability, T/C (second compound 0.1 µM, first compound 0.1 µM) 36.4% | viability, T/C (second compound 0.1 µM, first compound 0.316 µM) 41.5% | viability, T/C (second compound 0.1 µM, first compound 1 µM) 45.8% | viability, T/C (second compound 0.1 µM, first compound 3.16 µM) 47.5% | viability, T/C (second compound 0.316 µM, first compound 0.0316 µM) 21.2% | viability, T/C (second compound 0.316 µM, first compound 0.1 µM) 22.1% | viability, T/C (second compound 0.316 µM, first compound 0.316 µM) 22.1% | viability, T/C (second compound 0.316 µM, first compound 1 µM) 25.4% | viability, T/C (second compound 0.316 µM, first compound 3.16 µM) 26.4% | viability, T/C (second compound 0.316 µM, first compound 10 µM) 2.64% | viability, T/C (second compound 1 µM, first compound 0.0316 µM) 17.2% | viability, T/C (second compound 1 µM, first compound 0.1 µM) 13% | viability, T/C (second compound 1 µM, first compound 0.316 µM) 15.3% | viability, T/C (second compound 1 µM, first compound 1 µM) 14.3% | viability, T/C (second compound 1 µM, first compound 3.16 µM) 21.6% | viability, T/C (second compound 1 µM, first compound 10 µM) 1.47%

CC(Cn1ccc(-c2ccc(C#N)c(Cl)c2)n1)NC(=O)c1cc(C(C)O)[nH]n1 (stereo not given)
inactive: viability, T/C (compound 0.1 µM) 90.8% [middle of 4 runs] | viability, T/C (compound 0.316 µM) 104% [middle of 4 runs] | viability, T/C (compound 1 µM) 95.5% [middle of 4 runs] | viability, T/C (compound 3.16 µM) 110% [middle of 4 runs] | viability, T/C (compound 10 µM) 102% [middle of 4 runs]
> 10 µM: IC50 (curve of compound)

CC(=O)c1c(C)c2cnc(Nc3ccc(N4CCNCC4)cn3)nc2n(C2CCCC2)c1=O
0.0985 µM and > 0.1 µM and 0.0797 µM: IC50 (curve of compound)
inactive: viability, T/C (compound 0.000316 µM) 109% [middle of 4 runs] | viability, T/C (compound 0.001 µM) 91.3% [middle of 4 runs] | viability, T/C (compound 0.00316 µM) 76.6% [middle of 4 runs] | viability, T/C (compound 0.01 µM) 87.7% [middle of 4 runs] | viability, T/C (compound 0.0316 µM) 71.2% [middle of 4 runs] | viability, T/C (compound 0.1 µM) 47.9% [middle of 4 runs]

From PubChem BioAssay AID1963973 (Molecular Pharmacology Branch, DTP, NCI, 2024)
